Patent publication US20040180959A1, “Gabapentin analogues for fibromy algia and concomitant disorders” (priority 2002, published 2004)

Test system: CD-1 mice
Assay: Tail Suspension Test (TST) in mice
Format: in vivo
Conditions: 2 hours after treatment
Method: The anxiolytic and antidepressant activity of (3S, 4S)-(1-Aminomethyl-3,4-dimethyl-cyclopentyl)-acetic acid (“Compound A”) was assessed using the Tail Suspension Test (TST) in mice, and in the Water-lick (Vogel) Conflict Test (WLC) in rats. The Vogel test is a recognized test procedure for assessing the potential anxiolytic utility. The TST procedure is a behavior despair paradigm used to assess potential antidepressant activity.
The method consisted of suspending mice by a piece of cellophane tape attached to the distal end of the tail for 6 minutes. Animals (CD-1 mice, weighing 22 to 27 g, from Charles River Labs) were tested. The test apparatus was the TST-2™ (ITEM-Labo, Le Kremmlin-Bicetre Cedex, France). Data were analyzed with analysis of variance (ANOVA) and Tukey's Multiple Range Test or Student's t-test.
Compound A was dissolved in water and tested orally as a solution from 0.3 to 100 mg/kg in rats and 3 to 300 mg/kg in mice. Dosages are expressed as the active moiety and were administered in a volume of 1 mL/kg for rats and 10 mL/kg for mice.
The profile of typical […] activity in the TST consists of […]. Compound A and pregabalin were tested concurrently (PO) 2 hours after treatment. Compound A was administered at doses ranging from 3 to 100 mg/kg and pregabalin was tested from 3-300 mg/kg and served as positive control (Table 1). Compound A dose dependently increases immobility with the MED observed at the 3 mg/kg dosage and maximal effects were seen following the 30 mg/kg dose.

C[C@H]1CC(CN)(CC(=O)O)C[C@@H]1C [Compound A, (3S, 4S)-(1-Aminomethyl-3,4-dimethyl-cyclopentyl)-acetic acid]
Immobility, % Percent of control (3 mg/kg PO): 126.8 ± 7.0 %
Power of Movement, % Percent of control (3 mg/kg PO): 70.7 ± 10.3%
Immobility, % Percent of control (10 mg/kg PO): 143.7 ± 11.0 %
Power of Movement, % Percent of control (10 mg/kg PO): 60.8 ± 11.4%
Immobility, % Percent of control (30 mg/kg PO): 185.9 ± 7.0 %
Power of Movement, % Percent of control (30 mg/kg PO): 46.4 ± 12.3 %
Immobility, % Percent of control (100 mg/kg PO): 182.4 ± 5.9 %
Power of Movement, % Percent of control (100 mg/kg PO): 50.5 ± 18.3 %
Dose of maximal effects on immobility (PO): 30 mg/kg
MED for increasing immobility (PO): 3 mg/kg
Power of movement parameter (effect in words) (PO): decreased at the 30 and 100 mg/kg dosages
